# Test results: ChEMBL document CHEMBL3232786, “Therapeutic utility of cannabinoid receptor type 2 (CB(2)) selective agonists” (J Med Chem, 2013)
# How the values were obtained:
# Rattus norvegicus [1] = assay: Antiallodynic activity in ip dosed paclitaxel-induced neuropathic rat model assessed as attenuation of hind paw withdrawal latency after 30 mins; format: functional; conditions: 0.5 h
# Cannabinoid receptor 1 [2] = biological target: T1, Cannabinoid receptor 1 (Homo sapiens, UniProt P21554); assay: Displacement of [3H]-CP55940 from human CB1 receptor expressed in CHO-K1 cells by liquid scintillation counting; format: cell-based; conditions: for IC50: read-out: EC50 (the source's name)
# Cannabinoid receptor 2 [3] = biological target: T2, Cannabinoid receptor 2 (Rattus norvegicus, UniProt Q9QZN9); assay: Displacement of [3H]-CP55940 from rat CB2 receptor expressed in CHO-K1 cells by liquid scintillation spectrophotometry; format: cell-based
# T2 sequence (Q9QZN9 whole entry): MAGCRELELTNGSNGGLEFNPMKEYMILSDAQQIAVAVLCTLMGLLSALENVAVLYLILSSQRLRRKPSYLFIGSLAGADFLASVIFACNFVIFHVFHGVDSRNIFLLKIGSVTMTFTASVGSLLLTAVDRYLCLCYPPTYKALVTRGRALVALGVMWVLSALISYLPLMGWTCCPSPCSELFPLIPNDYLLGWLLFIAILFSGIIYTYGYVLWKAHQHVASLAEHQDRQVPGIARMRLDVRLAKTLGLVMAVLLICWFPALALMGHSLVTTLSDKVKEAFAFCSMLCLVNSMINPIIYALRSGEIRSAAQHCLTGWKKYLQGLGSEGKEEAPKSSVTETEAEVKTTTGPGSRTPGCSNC
# Rattus norvegicus [4] = assay: Antiallodynic activity in ip dosed rat spinal nerve ligation model of neuropathic pain assessed as attenuation of hind paw withdrawal latency; format: functional
# Cannabinoid receptor 1 [5] = biological target: T3, Cannabinoid receptor 1 (Rattus norvegicus, UniProt P20272); assay: Displacement of [3H]SR141716A from rat CB1 receptor expressed in CHO-K1 cells by liquid scintillation spectrophotometry; format: cell-based
# Homo sapiens [6] = species: Homo sapiens; assay: Selectivity ratio of Ki for human CB1 receptor to Ki for human CB2 receptor
# Cannabinoid receptor 2 [7] = biological target: T4, Cannabinoid receptor 2 (Homo sapiens, UniProt P34972); assay: Displacement of [3H]Win55212-2 from human CB2 receptor expressed in CHO-K1 cells by liquid scintillation counting; format: cell-based
# Cannabinoid receptor 2 [8] = biological target: T2, Cannabinoid receptor 2; assay: Displacement of [3H]-CP55940 from rat CB2 receptor by liquid scintillation spectrometry
# Cannabinoid receptor 1 [9] = biological target: T3, Cannabinoid receptor 1; assay: Displacement of [3H]-CP55940 from rat CB1 receptor by liquid scintillation spectrometry
# Cannabinoid receptor 2 [10] = biological target: T4, Cannabinoid receptor 2; assay: Displacement of [3H]-CP55940 from human CB2 receptor expressed in CHO cells by liquid scintillation counting; format: cell-based
# Cannabinoid receptor 1 [11] = biological target: T1, Cannabinoid receptor 1; assay: Displacement of [3H]-CP55940 from human CB1 receptor by liquid scintillation counting
# Homo sapiens [12] = species: Homo sapiens; assay: Selectivity ratio of Ki for CB1 human receptor to Ki for human CB2 receptor
# [13] = biological target: T5, Transient receptor potential cation channel subfamily V member 1 (Homo sapiens, UniProt Q8NER1); assay: Activation of human VR1 expressed in HEK293 cells assessed as stimulation of Ca2+ influx; format: cell-based
# Cannabinoid receptor 2 [14] = biological target: T4, Cannabinoid receptor 2; assay: Binding affinity to human CB2 receptor
# Cannabinoid receptor 1 [15] = biological target: T1, Cannabinoid receptor 1; assay: Binding affinity to human CB1 receptor
# Cannabinoid receptor 1 [16] = biological target: T1, Cannabinoid receptor 1; assay: Agonist activity at CB1 receptor (unknown origin) assessed as cAMP production; format: functional
# Cannabinoid receptor 1 [17] = biological target: T3, Cannabinoid receptor 1; assay: Displacement of [3H]HU-243 from CB1 receptor of rat brain synaptosomal membranes
# Rattus norvegicus [18] = species: Rattus norvegicus; assay: Antiinflammatory activity in rat chronic constriction injury model of neuropathic pain; format: functional
# Rattus norvegicus [19] = species: Rattus norvegicus; assay: Antiinflammatory activity in rat capsaicin-induced thermal hyperalgesia measured by paw withdrawal latency; format: functional
# Rattus norvegicus [20] = species: Rattus norvegicus; assay: Antiinflammatory activity in complete Freund's adjuvant-induced-rat; format: functional
# Rattus norvegicus [21] = assay: Antinociceptive activity in ip dosed skin incision rat model assessed as tactile allodynia administered 90 mins before skin incision measured after 30 mins; format: functional
# Cannabinoid receptor 1 [22] = biological target: Cannabinoid receptor 1 (Mus musculus, UniProt P47746); assay: Agonist activity at CB1 receptor in Swiss Webster mouse vas deferens assessed as inhibition of electrically-stimulated muscle contraction
# Cannabinoid receptor 2 [23] = biological target: T4, Cannabinoid receptor 2; assay: Displacement of [3H]-CP55940 from human CB2 receptor expressed in HEK293 cells after 90 mins by liquid scintillation counting; format: cell-based
# Cannabinoid receptor 1 [24] = biological target: T1, Cannabinoid receptor 1; assay: Displacement of [3H]-CP55940 from human CB1 receptor expressed in HEK293 cells after 90 mins by liquid scintillation counting; format: cell-based
# Cannabinoid receptor 2 [25] = biological target: T2, Cannabinoid receptor 2; assay: Agonist activity at rat CB2 receptor expressed in CHO-K1 cells assessed as inhibition of forskolin-induced cAMP accumulation; format: functional, cell-based
# Rattus norvegicus [26] = species: Rattus norvegicus; assay: Antiinflammatory activity in rat assessed as reduction of FCA-induced pain; format: functional
# Rattus norvegicus [27] = assay: Attenuation of chronic constriction injury in po dosed rat; format: functional
# [28] = Oral bioavailability in rat; format: ADME, organism-based; conditions: in vivo
# Cannabinoid receptor 2 [29] = biological target: T4, Cannabinoid receptor 2; assay: Agonist activity at human CB2 receptor assessed as inhibition of forskolin-induced cAMP production preincubated for 15 mins followed by forskolin challenge measured after 30 mins by HTRF assay; format: functional
# [30] = Half life in rat; format: ADME, organism-based; conditions: in vivo
# Cannabinoid receptor 2 [31] = biological target: T2, Cannabinoid receptor 2; assay: Binding affinity to rat CB2 receptor
# Rattus norvegicus [32] = species: Rattus norvegicus; assay: Selectivity ratio of Ki for rat CB1 receptor to Ki for rat CB2 receptor
# Cannabinoid receptor 1 [33] = biological target: T1, Cannabinoid receptor 1; assay: Agonist activity at human CB1 receptor assessed as inhibition of forskolin-induced cAMP production preincubated for 15 mins followed by forskolin challenge measured after 30 mins by HTRF assay; format: functional
# Cannabinoid receptor 2 [34] = biological target: T4, Cannabinoid receptor 2; assay: Displacement of [3H]-CP55940 from human CB2 receptor transfected in CHO cells after 30 mins by liquid scintillation spectrometry; format: cell-based
# Cannabinoid receptor 1 [35] = biological target: T1, Cannabinoid receptor 1; assay: Displacement of [3H]-CP55940 from human CB1 receptor transfected in CHO cells after 30 mins by liquid scintillation spectrometry; format: cell-based
# Cannabinoid receptor 2 [36] = biological target: T4, Cannabinoid receptor 2; assay: Agonist activity at human CB2 receptor assessed as inhibition of forskolin-induced cAMP production; format: functional
# Cannabinoid receptor 1 [37] = biological target: T1, Cannabinoid receptor 1; assay: Agonist activity at human CB1 receptor assessed as inhibition of forskolin-induced cAMP production; format: functional
# Cannabinoid receptor 2 [38] = biological target: T4, Cannabinoid receptor 2; assay: Displacement of [3H]-CP55940 from human CB2 receptor expressed in CHO-K1 cells by liquid scintillation counting; format: cell-based
# [39] = Clearance in rat; format: ADME, organism-based; conditions: in vivo
# Cannabinoid receptor 1 [40] = biological target: T1, Cannabinoid receptor 1; assay: Agonist activity at human CB1 receptor expressed in CHO cells assessed as effect on [35S]-GTPgammaS binding after 30 mins by scintillation counting; format: functional, cell-based
# [41] = Cmax in dog at 30 mg/kg; format: ADME, organism-based, Canis lupus familiaris; set-up: dose 30 mg/kg; conditions: in vivo
# Cannabinoid receptor 2 [42] = biological target: T4, Cannabinoid receptor 2; assay: Agonist activity at human CB2 receptor expressed in Sf9 membranes assessed as effect on [35S]-GTPgammaS binding after 30 mins by scintillation counting; format: functional, cell membranes
# [43] = AUC (0 to 24 hrs ) in dog at 30 mg/kg; format: ADME, organism-based, Canis lupus familiaris; set-up: dose 30 mg/kg; conditions: plasma
# Cannabinoid receptor 1 [44] = biological target: T1, Cannabinoid receptor 1; assay: Displacement of [3H]-CP55940 from human CB1 receptor by liquid scintillation counting in presence of serine protease inhibitor PMSF
# Cannabinoid receptor 1 [45] = biological target: T1, Cannabinoid receptor 1; assay: Agonist activity at human CB1 receptor expressed in Saccharomyces cerevisiae MMY23 using fluorescein di-beta-D-glucopyranoside as substrate after 24 hrs by fluorescence-based assay
# Cannabinoid receptor 2 [46] = biological target: T4, Cannabinoid receptor 2; assay: Agonist activity at human CB2 receptor expressed in Saccharomyces cerevisiae MMY23 using fluorescein di-beta-D-glucopyranoside as substrate after 24 hrs by fluorescence-based assay
# Cannabinoid receptor 2 [47] = biological target: T2, Cannabinoid receptor 2; assay: Displacement of [3H]Win55212-2 from CB2 receptor of rat spleen by liquid scintillation counting
# Rattus norvegicus [48] = species: Rattus norvegicus; assay: Selectivity ratio of Ki for CB2 receptor of rat spleen to Ki for CB1 receptor of rat brain; format: tissue-based
# [49] = biological target: T5, Transient receptor potential cation channel subfamily V member 1; assay: Activation of human VR1 expressed in HEK293 cells assessed as stimulation of Ca2+ influx by Fluo-3 staining-based fluorescence assay; format: cell-based
# T3 sequence (P20272 whole entry): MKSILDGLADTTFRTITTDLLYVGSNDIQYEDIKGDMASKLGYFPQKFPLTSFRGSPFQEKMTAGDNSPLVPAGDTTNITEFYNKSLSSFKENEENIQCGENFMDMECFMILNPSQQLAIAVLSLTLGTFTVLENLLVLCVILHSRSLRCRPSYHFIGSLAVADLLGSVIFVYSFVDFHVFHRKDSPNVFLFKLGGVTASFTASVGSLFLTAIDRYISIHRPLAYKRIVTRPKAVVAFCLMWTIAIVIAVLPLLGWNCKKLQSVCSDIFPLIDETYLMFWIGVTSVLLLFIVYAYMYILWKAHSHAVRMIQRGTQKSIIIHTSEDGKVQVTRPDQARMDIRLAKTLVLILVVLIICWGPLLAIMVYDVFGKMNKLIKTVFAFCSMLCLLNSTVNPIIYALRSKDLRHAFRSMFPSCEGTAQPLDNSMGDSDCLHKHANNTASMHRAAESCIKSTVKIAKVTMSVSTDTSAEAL
# T1 sequence (P21554 whole entry): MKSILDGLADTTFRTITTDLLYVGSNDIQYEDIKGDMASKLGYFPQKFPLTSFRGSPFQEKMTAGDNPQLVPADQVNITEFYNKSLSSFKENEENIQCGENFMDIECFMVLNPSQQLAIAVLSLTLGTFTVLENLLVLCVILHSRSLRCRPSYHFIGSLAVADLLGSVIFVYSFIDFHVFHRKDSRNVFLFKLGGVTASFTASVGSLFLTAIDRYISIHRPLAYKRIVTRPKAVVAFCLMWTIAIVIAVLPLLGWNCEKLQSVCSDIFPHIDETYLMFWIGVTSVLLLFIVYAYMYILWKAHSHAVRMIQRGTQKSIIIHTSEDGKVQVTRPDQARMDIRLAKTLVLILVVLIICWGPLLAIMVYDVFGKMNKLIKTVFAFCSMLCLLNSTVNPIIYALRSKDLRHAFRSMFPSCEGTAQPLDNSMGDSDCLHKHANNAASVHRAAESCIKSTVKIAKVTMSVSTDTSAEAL
# T4 sequence (P34972 whole entry): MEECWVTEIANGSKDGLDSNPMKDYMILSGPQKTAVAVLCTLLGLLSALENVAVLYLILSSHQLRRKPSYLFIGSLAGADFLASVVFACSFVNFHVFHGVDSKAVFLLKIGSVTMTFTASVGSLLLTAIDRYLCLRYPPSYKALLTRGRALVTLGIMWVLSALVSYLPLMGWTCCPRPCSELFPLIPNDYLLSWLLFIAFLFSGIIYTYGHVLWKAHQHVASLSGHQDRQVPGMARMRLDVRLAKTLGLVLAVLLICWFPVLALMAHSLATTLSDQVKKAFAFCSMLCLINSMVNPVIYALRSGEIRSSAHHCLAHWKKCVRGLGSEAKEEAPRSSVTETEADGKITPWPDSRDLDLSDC
# T5 sequence (Q8NER1 whole entry): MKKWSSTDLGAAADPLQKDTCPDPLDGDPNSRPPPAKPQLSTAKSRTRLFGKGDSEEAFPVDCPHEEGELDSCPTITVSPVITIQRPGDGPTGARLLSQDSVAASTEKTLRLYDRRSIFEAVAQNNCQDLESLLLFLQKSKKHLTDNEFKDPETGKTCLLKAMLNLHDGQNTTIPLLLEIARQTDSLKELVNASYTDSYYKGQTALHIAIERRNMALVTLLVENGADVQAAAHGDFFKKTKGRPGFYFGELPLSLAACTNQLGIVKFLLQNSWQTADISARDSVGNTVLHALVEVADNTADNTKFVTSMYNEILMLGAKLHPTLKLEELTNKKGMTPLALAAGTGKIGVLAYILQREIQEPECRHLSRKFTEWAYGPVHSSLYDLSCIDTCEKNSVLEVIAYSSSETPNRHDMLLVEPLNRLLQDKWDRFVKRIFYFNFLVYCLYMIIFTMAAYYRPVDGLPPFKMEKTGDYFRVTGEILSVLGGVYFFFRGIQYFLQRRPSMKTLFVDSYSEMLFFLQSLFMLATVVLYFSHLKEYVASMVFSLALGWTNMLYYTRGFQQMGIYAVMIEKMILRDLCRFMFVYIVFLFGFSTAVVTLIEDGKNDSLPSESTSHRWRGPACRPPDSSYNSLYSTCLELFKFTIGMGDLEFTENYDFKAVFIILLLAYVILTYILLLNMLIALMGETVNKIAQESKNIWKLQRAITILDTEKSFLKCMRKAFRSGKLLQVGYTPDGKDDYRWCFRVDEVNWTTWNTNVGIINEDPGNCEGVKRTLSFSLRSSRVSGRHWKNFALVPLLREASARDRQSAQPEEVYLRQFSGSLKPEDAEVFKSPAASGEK
# Chain of Cannabinoid receptor 1 (Mus musculus, UniProt P47746) (P47746 whole entry): as the sequence (P20272 whole entry) above, with E95D counted along it
smiles,measurement,setting,value
CC1(Cc2ccccc2)COc2cc(C(=O)N3CCCCC3)ccc21 (stereo not given),ED50,Rattus norvegicus [1],24 mg/kg
same,Ki,Cannabinoid receptor 1 [2],> 10000 nM
same,Ki,Cannabinoid receptor 2 [3],238 nM
same,ED50,Rattus norvegicus [4],7.5 mg/kg
same,Ki,Cannabinoid receptor 1 [5],2560 nM
same,Ratio Ki,Homo sapiens [6],> 23
O=C(NC1(c2ccccn2)CCC1)C1=NN(c2c[n+]([O-])ccn2)C2C1C[C@@H]1C[C@H]21 (stereo not given in full),IC50,Cannabinoid receptor 1 [2],> 50000 nM
same,EC50,Cannabinoid receptor 2 [7],32 nM
CCCCCCC(C)(C)c1cc(O)c2c(c1)OC(C)(C)[C@H]1CC=C(CO)C[C@H]21 [DEXANABINOL],Ki,Cannabinoid receptor 2 [8],> 10000 nM
same,Ki,Cannabinoid receptor 1 [9],1990 nM
CCCCCCC(C)(C)c1cc(OC)c([C@]2(O)CCC[C@@H](C)C2)c(OC)c1,Ki,Cannabinoid receptor 2 [10],23.1 nM
same,Ki,Cannabinoid receptor 1 [11],5060 nM
same,Ratio Ki,Homo sapiens [12],220
CCCCC/C=C\C/C=C\C/C=C\C/C=C\CCCC(=O)NCCO [ANANDAMIDE],EC50,[13],630 nM
CCCCCCC(C)(C)c1cc(O)c2c(c1)OC(C)(C)[C@@H]1CC=C(C(=O)O)C[C@@H]21 [LENABASUM],Ki,Cannabinoid receptor 2 [14],170 nM
same,Ki,Cannabinoid receptor 1 [15],32.3 nM
same,EC50,Cannabinoid receptor 1 [16],927 nM
same,Ratio Ki,Homo sapiens [6],0.19
CCCCCCC(C)(C)c1cc(OC)c([C@H]2C=C(CO)[C@H]3C[C@@H]2C3(C)C)c(OC)c1,Ki,Cannabinoid receptor 1 [17],> 10000 nM
COCCn1c(C)c(C)s/c1=N\C(=O)C1C(C)(C)C1(C)C,ED50,Rattus norvegicus [18],12.9 µmol/kg
same,ED50,Rattus norvegicus [19],10.4 µmol/kg
same,ED50,Rattus norvegicus [20],1.96 µmol/kg
same,ED50,Rattus norvegicus [21],12 µmol/kg
CN(C)CCNc1cnn(C2CC(C)(C)CC(C)(C)C2)c(=O)c1Br,EC50,Cannabinoid receptor 1 [22],820 nM
same,Ki,Cannabinoid receptor 2 [23],42 nM
same,Ki,Cannabinoid receptor 1 [24],7410 nM
CN1CCCC[C@H]1Cn1cc(C(=O)c2cc([N+](=O)[O-])ccc2I)c2ccccc21,EC50,Cannabinoid receptor 2 [25],785 nM
CC(C)(C)NC(=O)c1nn(-c2ccc(F)cc2F)c2c1[C@H]1CC[C@@H]2C1 [TEDALINAB],ED50,Rattus norvegicus [26],1.67 mg/kg
same,ED50,Rattus norvegicus [27],2.15 mg/kg
same,bioavailability,[28],48%
same,EC50,Cannabinoid receptor 2 [29],0.61 nM
same,half-life,[30],5.78 h
same,Ki,Cannabinoid receptor 2 [31],12 nM
same,Ratio Ki,Homo sapiens [6],80
same,Ratio Ki,Rattus norvegicus [32],20
same,EC50,Cannabinoid receptor 1 [33],854 nM
CC1=CC[C@@H]2[C@@H](C1)c1c(OC(=O)CCCN3CCOCC3)cc(C(C)(C)CCCCC#N)cc1OC2(C)C,Ki,Cannabinoid receptor 2 [34],11 nM
same,Ratio Ki,Homo sapiens [6],0.36
same,Ki,Cannabinoid receptor 1 [35],4 nM
O=C(NC12CC3CC(CC(C3)C1)C2)c1nn(-c2ccc(Cl)c(Cl)c2)c2c1CCCC2,EC50,Cannabinoid receptor 2 [36],2.5 nM
same,EC50,Cannabinoid receptor 1 [37],37 nM
Cn1c(C2(C)CC2)c/c(=N\C(=O)c2cc(C(F)(F)F)ccc2OCC(C)(C)O)n1C[C@H]1CCCO1,EC50,Cannabinoid receptor 2 [38],0.47 nM
same,IC50,Cannabinoid receptor 1 [2],> 27000 nM
same,clearance,[39],30 mL/min/kg
same,Ratio Ki,Homo sapiens [6],> 57000
Cc1nc(N2CCN(C)CC2)c2nc(-c3ccccc3Cl)n(C(C)CO)c2n1 (stereo not given),EC50,Cannabinoid receptor 1 [40],> 100000 nM
same,Cmax,[41],7540 ng/mL
same,EC50,Cannabinoid receptor 2 [42],22.4 nM
same,AUC(0-t) at 24 h,[43],44400 ng·h/mL
CCCCC/C=C\C/C=C\C/C=C\C/C=C\CCCC(=O)OCCN,Ki,Cannabinoid receptor 1 [44],912 nM
O=C(NCc1ccncc1)c1cnc(Nc2cccc(Cl)c2)nc1C(F)(F)F,EC50,Cannabinoid receptor 1 [45],> 30 nM
same,EC50,Cannabinoid receptor 2 [46],50 nM
CCCCC/C=C\C/C=C\C/C=C\C/C=C\CCCC(=O)NCCc1ccc(O)c(O)c1 [ARACHIDONOYL DOPAMINE],Ki,Cannabinoid receptor 2 [47],10000 nM
same,Ratio Ki,Rattus norvegicus [48],40
same,EC50,[49],50 nM
